Results published in the CheMixHub viscosity set.
Several values for one entry are separate records, joined by “and”; a condition that tells them apart may be missing. Equal values may be shown once.

Test: xn = mol fraction of the nth substance listed

c1ccc2ccccc2c1 + Cc1ccc(C)cc1
viscosity [mPa·s], 101.3 kPa
Conditions | x1 = 0.00437 | x1 = 0.00869 | x1 = 0.01249 | x1 = 0.01685 | x1 = 0.01712 | x1 = 0.01715 | x1 = 0.01815 | x1 = 0.02139 | x1 = 0.02569 | x1 = 0.02979
293.15 K | 0.6371 | 0.6386 | 0.6414 | – | – | – | 0.6438 | 0.6483 | 0.65 | 0.6534
298.15 K | 0.5968 | 0.5992 | 0.6012 | – | – | 0.6045 | – | 0.6076 | 0.6102 | 0.6125
313.15 K | 0.5333 | 0.5352 | 0.5363 | – | 0.5405 | – | – | 0.5431 | 0.5447 | 0.5469
323.15 K | 0.476 | 0.4777 | 0.4789 | 0.4818 | – | – | – | 0.4848 | 0.4862 | 0.4879

CC(C)=O + CCCCn1cc[n+](C)c1.F[B-](F)(F)F
Conditions | viscosity [mPa·s]
298.15 K, 101 kPa, x1 = 0.0973 | 77.6

CC1COC(=O)O1 (centres undefined) + CCCCCO
298.15 K, 101 kPa
Conditions | viscosity [mPa·s]
x1 = 0.0218 | 3.297
x1 = 0.0861 | 3.235
x1 = 0.1654 | 3.161
x1 = 0.2433 | 3.094
x1 = 0.3101 | 3.029
x1 = 0.374 | 2.973
x1 = 0.4207 | 2.933
x1 = 0.5003 | 2.865
x1 = 0.5691 | 2.808
x1 = 0.6326 | 2.756
x1 = 0.7214 | 2.685
x1 = 0.8072 | 2.618
x1 = 0.8655 | 2.574
x1 = 0.9573 | 2.505

CC1COC(=O)O1 (centres undefined) + C1COCCO1
303.15 K, 101.3 kPa
Conditions | viscosity [mPa·s]
x1 = 0.1007 | 1.1
x1 = 0.2012 | 1.184
x1 = 0.3015 | 1.273
x1 = 0.4017 | 1.369
x1 = 0.5017 | 1.472
x1 = 0.6015 | 1.582
x1 = 0.7018 | 1.706
x1 = 0.8014 | 1.844
x1 = 0.9008 | 1.992

CCCc1ccccc1 + CCC(=O)O
308.15 K, 101.33 kPa
Conditions | viscosity [mPa·s]
x2 = 0.0799 | 0.7011
x2 = 0.1548 | 0.7021
x2 = 0.2233 | 0.7031
x2 = 0.275 | 0.7037
x2 = 0.411 | 0.7084
x2 = 0.519 | 0.7218
x2 = 0.6192 | 0.7357
x2 = 0.7099 | 0.753
x2 = 0.7906 | 0.7717
x2 = 0.8664 | 0.8012
x2 = 0.9357 | 0.8334

C1CCOC1 + CCCCCC
Conditions | viscosity [mPa·s]
293.15 K, 101 kPa, x1 = 0.1171 | 0.3234
293.15 K, 101 kPa, x1 = 0.23 | 0.3356
293.15 K, 101 kPa, x1 = 0.3386 | 0.349
293.15 K, 101 kPa, x1 = 0.4434 | 0.36
293.15 K, 101 kPa, x1 = 0.5444 | 0.3797
293.15 K, 101 kPa, x1 = 0.6418 | 0.4007
293.15 K, 101 kPa, x1 = 0.736 | 0.4207
293.15 K, 101 kPa, x1 = 0.8269 | 0.442
293.15 K, 101 kPa, x1 = 0.9149 | 0.465
298 K, 101 kPa, x2 = 0.0984 | 0.431
298 K, 101 kPa, x2 = 0.1946 | 0.407
298 K, 101 kPa, x2 = 0.2979 | 0.387
298 K, 101 kPa, x2 = 0.3518 | 0.374
298 K, 101 kPa, x2 = 0.4012 | 0.365
298 K, 101 kPa, x2 = 0.4477 | 0.357
298 K, 101 kPa, x2 = 0.4775 | 0.352
298 K, 101 kPa, x2 = 0.5496 | 0.342
298 K, 101 kPa, x2 = 0.6159 | 0.333
298 K, 101 kPa, x2 = 0.6436 | 0.33
298 K, 101 kPa, x2 = 0.7063 | 0.323
298 K, 101 kPa, x2 = 0.7549 | 0.318
298 K, 101 kPa, x2 = 0.7901 | 0.314
298 K, 101 kPa, x2 = 0.9039 | 0.303
298.15 K, 101 kPa, x1 = 0.1171 | 0.3025
298.15 K, 101 kPa, x1 = 0.23 | 0.3142
298.15 K, 101 kPa, x1 = 0.3386 | 0.3258
298.15 K, 101 kPa, x1 = 0.4434 | 0.3381
298.15 K, 101 kPa, x1 = 0.5444 | 0.357
298.15 K, 101 kPa, x1 = 0.6418 | 0.3736
298.15 K, 101 kPa, x1 = 0.736 | 0.3943
298.15 K, 101 kPa, x1 = 0.8269 | 0.415
298.15 K, 101 kPa, x1 = 0.9149 | 0.4365
303.15 K, 101.33 kPa, x1 = 0.0971 | 0.285
303.15 K, 101.33 kPa, x1 = 0.1966 | 0.295
303.15 K, 101.33 kPa, x1 = 0.3001 | 0.307
303.15 K, 101.33 kPa, x1 = 0.4 | 0.32
303.15 K, 101.33 kPa, x1 = 0.5034 | 0.334
303.15 K, 101.33 kPa, x1 = 0.5974 | 0.349
303.15 K, 101.33 kPa, x1 = 0.7066 | 0.369
303.15 K, 101.33 kPa, x1 = 0.7889 | 0.386
303.15 K, 101.33 kPa, x1 = 0.8992 | 0.41

CC1COC(=O)O1 (centres undefined) + Cc1ccc(C)cc1
viscosity [mPa·s], 101 kPa
Conditions | 298.15 K | 308.15 K
x1 = 0.0227 | 0.6155 | 0.5443
x1 = 0.0397 | 0.6246 | 0.5534
x1 = 0.0573 | 0.6333 | 0.5634
x1 = 0.0816 | – | 0.5779
x1 = 0.098 | 0.6527 | 0.5884
x1 = 0.209 | 0.728 | 0.6727
x1 = 0.3029 | 0.8062 | 0.7639
x1 = 0.3993 | 0.9317 | 0.8783
x1 = 0.5028 | 1.116 | 1.026
x1 = 0.5978 | 1.316 | 1.184
x1 = 0.7068 | 1.584 | 1.394
x1 = 0.8012 | 1.856 | 1.599
x1 = 0.8996 | 2.149 | 1.835

c1ccc2ccccc2c1 + CC(=O)O
viscosity
Conditions | 303.15 K | 308.15 K | 313.15 K | 318.15 K | 323.15 K
101 kPa, x1 = 0.06774 | 1.187 mPa·s | 1.093 mPa·s | 1.01 mPa·s | 0.9386 mPa·s | 0.8751 mPa·s
101 kPa, x1 = 0.116 | – | 1.108 mPa·s | 1.024 mPa·s | 0.951 mPa·s | 0.8838 mPa·s
101.33 kPa, x1 = 0.06774 | 1.187 mPa·s | 1.093 mPa·s | 1.01 mPa·s and 1.01 mPa·s | 0.9386 mPa·s | 0.8751 mPa·s
101.33 kPa, x1 = 0.08923 | – | – | 1.023 mPa·s | – | –
101.33 kPa, x1 = 0.116 | – | – | 1.024 mPa·s | – | –
101.33 kPa, x1 = 0.12 | – | 1.108 mPa·s | 1.024 mPa·s | 0.951 mPa·s | 0.8838 mPa·s
101.33 kPa, x1 = 0.1443 | – | – | 1.049 mPa·s | – | –

CC(C)=O + CCCCCC
298.15 K, 101 kPa
Conditions | viscosity [mPa·s]
x1 = 0.1416 | 0.303
x1 = 0.2707 | 0.3137
x1 = 0.3888 | 0.3047
x1 = 0.4974 | 0.2983
x1 = 0.5975 | 0.3043
x1 = 0.6901 | 0.3039
x1 = 0.776 | 0.2984
x1 = 0.8559 | 0.3113
x1 = 0.9304 | 0.3144
